Assay results from ChEMBL document CHEMBL3232945 (Eur J Med Chem, 2014).

What was measured:
[1] = tested on: Rattus norvegicus; assay: Toxicity in anaesthetized-Wistar rat assessed as QRS ECG interval at 40 mg/kg, ip after 45 mins (reference value: 20.2 +/- 1.348 ms); type: organism-based; design: dose 40 mg/kg, route intraperitoneal; conditions: in vivo, 0.75 h
[2] = tested on: Rattus norvegicus; assay: Toxicity in anaesthetized-Wistar rat assessed as Q-T ECG interval at 40 mg/kg, ip after 30 mins (reference value: 78.3 +/- 0.860 ms); type: organism-based; design: dose 40 mg/kg, route intraperitoneal; conditions: in vivo, 0.5 h
[3] = tested on: Rattus norvegicus; assay: Toxicity in anaesthetized-Wistar rat assessed as QRS ECG interval at 40 mg/kg, ip after 30 mins (reference value: 19.9 +/- 1.393 ms); type: organism-based; design: dose 40 mg/kg, route intraperitoneal; conditions: in vivo, 0.5 h
[4] = tested on: Rattus norvegicus; assay: Toxicity in anaesthetized-Wistar rat assessed as P-Q ECG interval at 40 mg/kg, ip after 60 mins (reference value: […] +/- 0.924 ms); type: organism-based; design: dose 40 mg/kg, route intraperitoneal; conditions: in vivo, 1 h
[5] = tested on: Rattus norvegicus; assay: Toxicity in anesthetized-normotensive Wistar rat assessed as heart rate at 40 mg/kg, ip after 15 mins (reference value: 313.93 +/- 9.912 bpm); type: organism-based; design: dose 40 mg/kg, route intraperitoneal; conditions: in vivo, 0.25 h
[6] = tested on: Rattus norvegicus; assay: Antihypertensive activity in Wistar rat assessed as mean arterial pressure at 40 mg/kg, ip after 60 mins (reference value: 195.11 +/- 0.531 mmHg); type: functional, Artery; conditions: route intraperitoneal
[7] = tested on: Rattus norvegicus; assay: Toxicity in […] normotensive Wistar rat assessed as mean arterial pressure at 40 mg/kg, ip measured immediately at 0 min (reference value: 94.21 +/- 2.065 mmHg); type: organism-based, Artery; design: dose 40 mg/kg, route intraperitoneal; conditions: in vivo, 0 h
[8] = tested on: Rattus norvegicus; assay: Toxicity in anaesthetized-Wistar rat assessed as Q-T ECG interval at 40 mg/kg, ip after 60 mins (reference value: 79.7 +/- 0.965 ms); type: organism-based; design: dose 40 mg/kg, route intraperitoneal; conditions: in vivo, 1 h
[9] = tested on: Rattus norvegicus; assay: Antihypertensive activity in Wistar rat assessed as mean arterial pressure at 40 mg/kg, ip after 30 mins (reference value: 194.72 +/- 1.002 mmHg); type: functional, Artery; conditions: route intraperitoneal
[10] = tested on: Rattus norvegicus; assay: Toxicity in […] normotensive Wistar rat assessed as mean arterial pressure at 40 mg/kg, ip after 15 mins (reference value: 93.81 +/- 1.543 mmHg); type: organism-based, Artery; design: dose 40 mg/kg, route intraperitoneal; conditions: in vivo, 0.25 h
[11] = tested on: Rattus norvegicus; assay: Toxicity in anaesthetized-Wistar rat assessed as P-Q ECG interval at 40 mg/kg, ip measured immediately at 0 min (reference value: 52.4 +/- 0.927 ms); type: organism-based; design: dose 40 mg/kg, route intraperitoneal; conditions: in vivo, 0 h
[12] = tested on: Rattus norvegicus; assay: Antihypertensive activity in Wistar rat assessed as mean arterial pressure at 40 mg/kg, ip measured immediately at 0 min (reference value: 194.08 +/- 1.962 mmHg); type: functional, Artery; conditions: route intraperitoneal
[13] = tested on: Rattus norvegicus; assay: Toxicity in anesthetized-normotensive Wistar rat assessed as heart rate at 40 mg/kg, ip measured immediately at 0 min (reference value: 316.62 +/- 9.643 bpm); type: organism-based; design: dose 40 mg/kg, route intraperitoneal; conditions: in vivo, 0 h
[14] = tested on: Rattus norvegicus; assay: Toxicity in […] normotensive Wistar rat assessed as mean arterial pressure at 40 mg/kg, ip after 30 mins (reference value: 94.68 +/- 1.213 mmHg); type: organism-based, Artery; design: dose 40 mg/kg, route intraperitoneal; conditions: in vivo, 0.5 h
[15] = tested on: Rattus norvegicus; assay: Toxicity in […] normotensive Wistar rat assessed as mean arterial pressure at 40 mg/kg, ip after 45 mins (reference value: 94.83 +/- 0.943 mmHg); type: organism-based, Artery; design: dose 40 mg/kg, route intraperitoneal; conditions: in vivo, 0.75 h
[16] = tested on: Rattus norvegicus; assay: Toxicity in anaesthetized-Wistar rat assessed as QRS ECG interval at 40 mg/kg, ip measured immediately at 0 min (reference value: 19.6 +/- 1.142 ms); type: organism-based; design: dose 40 mg/kg, route intraperitoneal; conditions: in vivo, 0 h
[17] = tested on: Rattus norvegicus; assay: Toxicity in […] normotensive Wistar rat assessed as mean arterial pressure at 40 mg/kg, ip after 60 mins (reference value: 95.07 +/- 1.973 mmHg); type: organism-based, Artery; design: dose 40 mg/kg, route intraperitoneal; conditions: in vivo, 1 h
[18] = tested on: Rattus norvegicus; assay: Toxicity in anesthetized-normotensive Wistar rat assessed as heart rate at 40 mg/kg, ip after 60 mins (reference value: 314.96 +/- 9.442 bpm); type: organism-based; design: dose 40 mg/kg, route intraperitoneal; conditions: in vivo, 1 h
[19] = tested on: Rattus norvegicus; assay: Antihypertensive activity in Wistar rat assessed as mean arterial pressure at 40 mg/kg, ip after 45 mins (reference value: 193.96 +/- 0.865 mmHg); type: functional, Artery; conditions: route intraperitoneal
[20] = tested on: Rattus norvegicus; assay: Toxicity in anaesthetized-Wistar rat assessed as P-Q ECG interval at 40 mg/kg, ip after 45 mins (reference value: 52.5 +/- 0.780 ms); type: organism-based; design: dose 40 mg/kg, route intraperitoneal; conditions: in vivo, 0.75 h
[21] = tested on: Rattus norvegicus; assay: Antihypertensive activity in Wistar rat assessed as mean arterial pressure at 40 mg/kg, ip after 15 mins (reference value: 195.68 +/- 1.623 mmHg); type: functional, Artery; conditions: route intraperitoneal
[22] = tested on: Rattus norvegicus; assay: Antiarrhythmic activity in barium chloride-induced Wistar rat assessed as increase in mortality time at 40 mg/kg, ip administered 60 mins before barium chloride challenge (reference value: 682.8 +/- 9.656 secs); type: functional, Heart; conditions: route intraperitoneal
[23] = tested on: Rattus norvegicus; assay: Toxicity in anaesthetized-Wistar rat assessed as QRS ECG interval at 40 mg/kg, ip after 15 mins (reference value: 18.9 +/- 1.563 ms); type: organism-based; design: dose 40 mg/kg, route intraperitoneal; conditions: in vivo, 0.25 h
[24] = tested on: Rattus norvegicus; assay: Antiarrhythmic activity in barium chloride-induced Wistar rat assessed as increase in appearance time of arrhythmia at 40 mg/kg, ip administered 60 mins before barium chloride challenge (reference value: 129.4 +/- 4.373 sec); type: functional, Heart; conditions: route intraperitoneal
[25] = tested on: Rattus norvegicus; assay: Toxicity in anesthetized-normotensive Wistar rat assessed as heart rate at 40 mg/kg, ip after 45 mins (reference value: 316.82 +/- 8.452 bpm); type: organism-based; design: dose 40 mg/kg, route intraperitoneal; conditions: in vivo, 0.75 h
[26] = tested on: Rattus norvegicus; assay: Toxicity in anaesthetized-Wistar rat assessed as P-Q ECG interval at 40 mg/kg, ip after 15 mins (reference value: 52.2 +/- 1.158 ms); type: organism-based; design: dose 40 mg/kg, route intraperitoneal; conditions: in vivo, 0.25 h
[27] = tested on: Rattus norvegicus; assay: Toxicity in anaesthetized-Wistar rat assessed as QRS ECG interval at 40 mg/kg, ip after 60 mins (reference value: 19.3 +/- 0.873 ms); type: organism-based; design: dose 40 mg/kg, route intraperitoneal; conditions: in vivo, 1 h
[28] = tested on: Rattus norvegicus; assay: Toxicity in anesthetized-normotensive Wistar rat assessed as heart rate at 40 mg/kg, ip after 30 mins (reference value: 317.68 +/- 7.631 bpm); type: organism-based; design: dose 40 mg/kg, route intraperitoneal; conditions: in vivo, 0.5 h
[29] = tested on: Rattus norvegicus; assay: Toxicity in anaesthetized-Wistar rat assessed as P-Q ECG interval at 40 mg/kg, ip after 30 mins (reference value: […] +/- 0.927 ms); type: organism-based; design: dose 40 mg/kg, route intraperitoneal; conditions: in vivo, 0.5 h
[30] = tested on: Rattus norvegicus; assay: Toxicity in anaesthetized-Wistar rat assessed as Q-T ECG interval at 40 mg/kg, ip after 15 mins (reference value: 79.4 +/- 1.270 ms); type: organism-based; design: dose 40 mg/kg, route intraperitoneal; conditions: in vivo, 0.25 h
[31] = tested on: Rattus norvegicus; assay: Toxicity in anaesthetized-Wistar rat assessed as Q-T ECG interval at 40 mg/kg, ip measured immediately at 0 min (reference value: 78.8 +/- 1.030 ms); type: organism-based; design: dose 40 mg/kg, route intraperitoneal; conditions: in vivo, 0 h

Compound: CCCCN(CCCC)CC(O)CN1C(=O)/C(=C\c2ccccc2)S/C1=N\c1ccccc1 (stereo not drawn)
- Activity [1]: 22.4 min
- Activity [2]: 68.9 min
- Activity [3]: 22 ms
- Activity [4]: 54.3 min
- Activity [5]: 297.25 bpm
- Activity [6]: 182.09 mmHg
- Activity [7]: 95.56 mmHg
- Activity [8]: 66.4 ms
- Activity [9]: 159.69 mmHg
- Activity [10]: 84.43 mmHg
- Activity [11]: 53.5 ms
- Activity [12]: 195.08 mmHg
- Activity [13]: 309.12 bpm
- Activity [14]: 77.87 mmHg
- Activity [15]: 80.16 mmHg
- Activity [16]: 20.4 min
- Activity [17]: 90.59 mmHg
- Activity [18]: 301.69 bpm
- Activity [19]: 163.37 mmHg
- Activity [20]: 57.3 min
- Activity [21]: 171.43 mmHg
- Time [22]: 786.2 s
- Activity [23]: 21.6 min
- Time [24]: 265.4 s
- Activity [25]: 283.5 bpm
- Activity [26]: 55 min
- Activity [27]: 22.6 min
- Activity [28]: 276.46 bpm
- Activity [29]: 56.1 min
- Activity [30]: 67.9 min
- Activity [31]: 67 min

Compound: O=C1/C(=C\c2ccccc2)S/C(=N\c2ccccc2)N1CC(O)CN1CCOCC1 (stereo not drawn)
- Activity [1]: 23.1 min
- Activity [2]: 73.2 min
- Activity [3]: 23.8 ms
- Activity [4]: 52.7 min
- Activity [5]: 304.65 bpm
- Activity [6]: 154.93 mmHg
- Activity [7]: 92.99 mmHg
- Activity [8]: 74.2 ms
- Activity [9]: 168.61 mmHg
- Activity [10]: 82.61 mmHg
- Activity [11]: 49.9 ms
- Activity [12]: 195.43 mmHg
- Activity [13]: 315.15 bpm
- Activity [14]: 73.87 mmHg
- Activity [15]: 62.69 mmHg
- Activity [16]: 23.4 min
- Activity [17]: 71.43 mmHg
- Activity [18]: 308.42 bpm
- Activity [19]: 131.61 mmHg
- Activity [20]: 51.3 min
- Activity [21]: 175.31 mmHg
- Time [22]: 1089.8 s
- Activity [23]: 23.2 min
- Time [24]: 313.5 s
- Activity [25]: 294.42 bpm
- Activity [26]: 50.2 min
- Activity [27]: 23.7 min
- Activity [28]: 293.54 bpm
- Activity [29]: 50.9 min
- Activity [30]: 74.9 min
- Activity [31]: 74.3 min

Compound: O=C1/C(=C\c2ccccc2)S/C(=N\c2ccccc2)N1CC(O)CN1CCCCC1 (stereo not drawn)
- Activity [1]: 22.8 min
- Activity [2]: 73.3 min
- Activity [3]: 21.9 ms
- Activity [4]: 51.5 min
- Activity [5]: 297.54 bpm
- Activity [6]: 166.84 mmHg
- Activity [7]: 94.65 mmHg
- Activity [8]: 71.8 ms
- Activity [9]: 134.16 mmHg
- Activity [10]: 82.63 mmHg
- Activity [11]: 52.2 ms
- Activity [12]: 194.76 mmHg
- Activity [13]: 308.43 bpm
- Activity [14]: 72.76 mmHg
- Activity [15]: 64.69 mmHg
- Activity [16]: 20.2 min
- Activity [17]: 76.12 mmHg
- Activity [18]: 303.32 bpm
- Activity [19]: 145.87 mmHg
- Activity [20]: 50.6 min
- Activity [21]: 165.33 mmHg
- Time [22]: 886.9 s
- Activity [23]: 21.5 min
- Time [24]: 279.3 s
- Activity [25]: 274.15 bpm
- Activity [26]: 51.7 min
- Activity [27]: 22.6 min
- Activity [28]: 268.74 bpm
- Activity [29]: 51.9 min
- Activity [30]: 72.9 min
- Activity [31]: 72.7 min
